The assay relates to C. elegans. The assay is described as follows: Dauer inducing activity assay (dauer test on worms grown in S medium). Type of assay: in vivo. The method, then: To examine whether this ethanol extract (A) can induce dauer larva phase, dauer test is performed on the worms that had been grown in the S medium.
Briefly, the dried A was dissolved in double distilled water and extracted with the equal volume of ethyl acetate. This extraction procedure was repeated 5 times.
After confirming the dauer inducing activity of B, extracts obtained by the above-described process are loaded onto a silica-gel absorption column which has been equilibrated with hexane: ethyl acetate: methanol=7:7:1. An active form of dauer pheromone (C) that were adsorbed onto the column was eluted with methanol.
To further purify C, HPLC separation is carried out using amine column. Briefly, the fraction C is dissolved in methanol and diluted with double distilled water (MeOH: ddH2O=1:1). This solution containing C is loaded onto the amine column, which is equilibrated with isopropanol solution (isopropanol: water=1:1). A dauer pheromone fraction bound to the column (Fraction D) was eluted with a gradient solution of the same solvent.
Table 5 outlines the result of dauer inducing assay using the active fractions D from the amine column chromatography. Finally, a dauer pheromone (E) is completely isolated and purified refined by size exclusion column chromatography using methanol as an eluent solution.
The pure dauer pheromone characterized by the above described procedures is defined as the structural formula I, and its chemical formula is 6-(3,5-dihydroxy-6-methyl-tetrahydro-pyran-2-yloxy)-heptanoic acid or its sodium salt.

Consider `CC(CCCCC(=O)O)OC1OC(C)C(O)CC1O` (stereo not drawn) [W251 column fraction (purified form), 6-(3,5-dihydroxy-6-methyl-tetrahydro-pyran-2-yloxy)-heptanoic acid], for which, where the note is “dauer test on C. elegans”, the “Formation of dauer larva stage (%)” value was found to be 100%. The “Population in dauer larva stage” value (number of worms in dauer larva stage in the dauer test) was 62. Moreover, the “Induction of dauer phase (in words)” value (pure pheromone added onto the media) was “markedly induce the worm into dauer phase”.

The record behind these values is patent US7119213B2, “Pharmacologically active isolated or purified dauer pheromone compound for controlling aging and stress and method for isolating and characterizing the same” (priority 2002, dated 2006).
